Counter-ions that a name gives are not always drawn.
Assays:
[1] = biological target: T1, human neutrophil elastase (Homo sapiens, UniProt P08246); experiment: In vitro assay of human neutrophil elastase (HNE); assay type: biochemical; details: 118 nM purified human neutrophil elastase, pH 8.6, 15 min incubation at 30° C., MeO-succinyl-alanyl-alanyl-prolyl-valyl-p-nitroanilide substrate; read-out: HNE IC50
T1 sequence (P08246 30-267): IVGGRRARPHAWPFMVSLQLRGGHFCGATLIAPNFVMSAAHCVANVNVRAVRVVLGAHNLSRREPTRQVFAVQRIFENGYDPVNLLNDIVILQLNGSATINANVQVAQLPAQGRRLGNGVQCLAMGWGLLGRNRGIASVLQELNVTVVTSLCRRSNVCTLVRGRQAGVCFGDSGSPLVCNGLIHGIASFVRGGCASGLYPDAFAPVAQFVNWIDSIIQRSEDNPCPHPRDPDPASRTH
In short: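 Residual activity was taken as the 10 min rate of absorbance rise at 405 nm after adding 0.6 mM MeO-succinyl-AAPV-p-nitroanilide. Curve fitting of activity against concentration gave IC50.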

[2] = test system: Intracellular elastase; experiment: Oral in vivo model using IL-8 induced lung infiltrates for the assessment of intracellular elastase inhibition (hamster test); details: effective dose of less than 40 mg/kg, IL-8 intratracheal
In short: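 Fasted adult hamsters (n=4) given compound orally in water, with intratracheal 1 ug recombinant human IL-8; sacrificed 6 h later. Neutrophils from lung lavage and femoral bone marrow sonicated, granules disrupted, and elastase measured, with myeloperoxidase used to normalise for neutrophil recovery.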

Compound | IC50 [1] | duration of effect [2]
CC(C)[C@H]1C(=O)N(S(C)(=O)=O)[C@H]2CCN(C(=O)c3cccc(CNC4CC4)c3)[C@H]12.Cl (relative stereo) [Example 190, rel-(3R,3aR,6aS)-4-(3-Cyclopropylaminomethyl-benzoyl)-3-isopropyl-1-methanesulfonyl-hexahydro-pyrrolo[3,2-b]pyrrol-2-one hydrochloride] | 24 nM | at least 6 hours
CC(C)[C@H]1C(=O)N(S(C)(=O)=O)[C@H]2CCN(C(=O)c3ccc(CN4C(C)CCCC4C)cc3)[C@H]12.Cl (relative stereo) [Example 200, rel-(3R,3aR,6aS)-4-[4-(2,6-Dimethyl-piperidin-1-ylmethyl)-benzoyl]-3-isopropyl-1-methanesulfonyl-hexahydropyrrolo[3,2-b]pyrrol-2-one hydrochloride] | 53 nM | at least 6 hours
CC(C)[C@H]1C(=O)N(S(C)(=O)=O)[C@H]2CCN(C(=O)/C=C/CN3CCC(C(N)=O)CC3)[C@H]12.Cl (relative stereo) [Example 152, rel-1-[4-(6R-Isopropyl-4-methanesulfonyl-5-oxo-hexahydro-(3aS,6aR)-pyrrolo[3,2-b]pyrrol-1-yl)-4-oxo-but-2E-enyl]-piperidine-4-carboxylic acid amide hydrochloride] | 21 nM | at least 6 hours
CCCN(C)Cc1ccc(C(=O)N2CC[C@H]3[C@H]2[C@@H](C(C)C)C(=O)N3S(C)(=O)=O)cc1.Cl (relative stereo) [Example 181, rel-(3R,3aR,6aS)-3-Isopropyl-1-methanesulfonyl-4-{4-[(methyl-propyl-amino)-methyl]-benzoyl}-hexahydro-pyrrolo[3,2-b]pyrrol-2-one hydrochloride] | 42 nM | at least 6 hours
CC(C)[C@H]1C(=O)N(S(C)(=O)=O)[C@H]2CCN(C(=O)c3ccc(CN(C)C)cc3)[C@H]12.Cl (relative stereo) [Example 175, rel-(3R,3aR,6aS)-4-(4-Dimethylaminomethyl-benzoyl)-3-isopropyl-1-methanesulfonyl-hexahydro-pyrrolo[3,2-b]pyrrol-2-one hydrochloride] | 74 nM | at least 6 hours
COC(=O)[C@@H]1CCCN1C/C=C/C(=O)N1CC[C@H]2[C@H]1[C@@H](C(C)C)C(=O)N2S(C)(=O)=O (relative stereo) [Example 140, 1-[4-(rel-6R-Isopropyl-4-methanesulfonyl-5-oxo-hexahydro-(3aS,6aR)-pyrrolo[3,2-b]pyrrol-1-yl)-4-oxo-but-2E-enyl]-pyrrolidine-2S-carboxylic acid methyl ester hydrochloride] | 36 nM | at least 6 hours
CC(C)[C@H]1C(=O)N(S(C)(=O)=O)[C@H]2CCN(C(=O)/C=C/CN3C(C)CCCC3C)[C@H]12.Cl (relative stereo) [Example 139, rel-(3R,3aR,6aS)-4-[4-(2,6-Dimethyl-piperidin-1-yl)-but-2E-enoyl]-3-isopropyl-1-methanesulfonyl-hexahydro-pyrrolo[3,2-b]pyrrol-2-one hydrochloride] | 55 nM | at least 6 hours
CON(C)C/C=C/C(=O)N1CC[C@H]2[C@H]1[C@@H](C(C)C)C(=O)N2S(C)(=O)=O (relative stereo) [Example 147, rel-(3R,3aR,6aS)-3-Isopropyl-1-methanesulfonyl-4-[4-(methoxy-methyl-amino)-but-E2-enoyl]-hexahydro-pyrrolo[3,2-b]pyrrol-2-one hydrochloride] | 96 nM | at least 6 hours
CC(C)[C@H]1C(=O)N(S(C)(=O)=O)[C@H]2CCN(C(=O)c3ccc(CN4CCOCC4)cc3)[C@H]12.Cl (relative stereo) [Example 177, rel-(3R,3aR,6aS)-3-Isopropyl-1-methanesulfonyl-4-(4-morpholin-4-ylmethyl-benzoyl)-hexahydro-pyrrolo[3,2-b]pyrrol-2-one hydrochloride] | 20 nM | at least 6 hours
